Laboratory results as given in ChEMBL document CHEMBL1132033, “Stabilization of microtubules by Combretastatin D derivatives” (Bioorg Med Chem Lett, 1999).

How the values were obtained:
1A9 = assay: Inhibitory activity against Taxol resistant 1A9 cell lines; format: functional, cell-based; conditions: Homo sapiens
[1] = molecular target: Tubulin alpha chain (Sus scrofa) (UniProt P02550); assay: Inhibitory activity against tubulin polymerization at 0.5 mM concentration; format: functional
1A9/ptx-10 = assay: Inhibitory activity against Taxol resistant PTX10 cell lines; format: functional, cell-based; conditions: Homo sapiens
1A9/ptx-22 = assay: Inhibitory activity against Taxol resistant PTX22 cell lines; format: functional, cell-based; conditions: Homo sapiens
[2] = molecular target: Tubulin alpha chain (Sus scrofa) (UniProt P02550); assay: Inhibitory activity against tubulin polymerization at 2.0 mM concentration; format: functional
[3] = molecular target: Tubulin alpha chain (Sus scrofa) (UniProt P02550); assay: Inhibitory activity against tubulin polymerization at 1.0 mM concentration; format: functional
[4] = molecular target: Tubulin alpha chain (Sus scrofa) (UniProt P02550); assay: Inhibitory activity against tubulin polymerization at 0.25 mM concentration; format: functional

Sequence of Tubulin alpha chain (Sus scrofa) (P02550 whole entry, looked up): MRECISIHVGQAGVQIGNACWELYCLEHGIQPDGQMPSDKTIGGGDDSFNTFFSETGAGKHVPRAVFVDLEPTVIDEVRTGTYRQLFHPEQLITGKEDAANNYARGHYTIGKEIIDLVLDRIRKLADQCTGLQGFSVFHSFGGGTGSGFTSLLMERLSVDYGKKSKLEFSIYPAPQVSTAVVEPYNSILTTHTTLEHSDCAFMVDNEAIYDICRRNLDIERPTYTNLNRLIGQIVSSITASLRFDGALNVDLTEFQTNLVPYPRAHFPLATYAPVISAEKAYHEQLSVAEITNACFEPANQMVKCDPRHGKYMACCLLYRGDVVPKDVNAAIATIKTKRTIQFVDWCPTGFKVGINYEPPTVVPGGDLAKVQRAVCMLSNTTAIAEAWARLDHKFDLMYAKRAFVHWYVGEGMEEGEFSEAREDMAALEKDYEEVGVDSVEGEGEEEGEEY

SMILES | IC50 (1A9) [nM] | inhibition [1] [%] | IC50 (1A9/ptx-10) [nM] | IC50 (1A9/ptx-22) [nM] | inhibition [2] [%] | inhibition [3] [%] | inhibition [4] [%]
COc1ccc2cc1Oc1ccc(cc1)CC(I)COC(=O)CC2 (configuration not stated) | > 2500 | 28 | > 2500 | > 2500 | 54 | 35 | 5
COc1c(Br)cc2cc1Oc1ccc(cc1)CC(O)COC(=O)CC2 (configuration not stated) | > 2500 | 21 | > 2500 | > 2500 | 67 | 39 | 3
COc1ccc2cc1Oc1ccc(cc1)C1OC1COC(=O)CC2 (configuration not stated) | > 2500 | 20 | > 2500 | > 2500 | 39 | 27 | 0
COc1cc2c(c(OC)c1OC)-c1ccc(OC)c(=O)cc1[C@@H](NC(C)=O)CC2 [COLCHICINE] | > 2500 | 3 | > 2500 | > 2500 | 0 | 4 | 4
COc1ccc2cc1Oc1ccc(cc1)/C=C\COC(=O)CC2 | > 2500 | 19 | > 2500 | > 2500 | 35 | 27 | 16
COc1ccc2cc1Oc1ccc(cc1)CC(O)COC(=O)CC2 (configuration not stated) | > 2500 | 47 | > 2500 | > 2500 | 76 | 62 | 27
